These results are taken from patent publication US20090082303A1, “DRUG FOR PREVENTING AND TREATING ATHEROSCLEROSIS” (Takeda Pharmaceutical Company Limited, priority 2004, published 2009).

Data set [1] relates to human GM3 synthase. Description: GM3 synthase inhibitor screening (1): BODIPY-lactosylceramide, HPTLC fluorescence. In kind it is biochemical. The conditions noted are these: 73 without CMP. How it is done: (§1) The cell line stably expressing human GM3 synthase, which was established by transducing human GM3 synthase gene into RAW264.7 strain purchased from ATCC (Raschke W C, et al., Cell, Vol. 15, pp. 261-267, 1978) with retrovirus vector, was cultured in 10% FBS-DMEM culture medium. After culturing to confluent state, the cells were washed once with PBS and harvested. After weighing wet cells, the cells were suspended in 3 (three) volumes of buffer solution (15 mM sodium cacodilate (pH6.5), 5% glycerol). By ultrasonication, the cells were disrupted, and the supernatant, of which cell debris was excluded by centrifugation, was used as a crude enzyme solution. Protein concentration of the crude enzyme solution was determined using BCA protein assay kit(BIO RAD, Inc.).
BODIPY-lactosylceramide (Molecular Probes, Inc.) in chloroform solution was dried in Eppendorf tube under nitrogen flow. 4× reaction buffer solution consisting of 400 mM sodium cacodylate (pH6.5), 1.6% Triton X-100, 40 mM MgCl2 and 8 mM 2,3 dehydro-2-deoxy-N-acetylneuraminic acid was added to the tube. After vortexing, it was sufficiently dissolved by ultrasonication for 20 seconds in sonicator bath and was used as a substrate solution.
Ten μl of substrate solution, 10 μl of 800 μM CMP-sialic acid, 10 μl of crude enzyme solution and 10 μl of sample were admixed and followed by incubating at 37° C. for one hour. As a sample, cytidine mono phosphate (CMP), wherein the inhibitory effect to GM3 synthase activity is reported, was used (Biochem. Biophys. Res. Commun., Vol. 193, pp. 585-590, 1993). One milliliter of chloroform/methanol mixture (2:1) was added to the reaction mixture to terminate the reaction. After mixing, ultrasonication was done for 30 minutes in sonicator bath. Supernatant was recovered by centrifugation at 15,000 rpm for 5 minutes. Pellet was further washed with 200 μl of chloroform/methanol mixture (2:1) and recovered its supernatant by centrifugation at 15,000 rpm for 5 minutes. Collected supernatant was dried under nitrogen flow, and residue was re-suspended in 50 μl of chloroform/methanol mixture (2:1). Twenty μl of the supernatant isolated by centrifugation was spotted on HPTLC (Merck, Inc.) and was developed with solvent system consisting of chloroform/methanol/0.2% CaCl2 aqueous solution (50:45:10). After development, fluorescent intensity was measured with LAS-1000 (Fuji Film, Inc.). Fluorescent intensity of both the substrate, BODIPY-lactosylceramide and the product, BODIPY-GM3 was measured, respectively to calculate a ratio of GM3 produced to lactosylceramide added. The activity was calculated as an amount of GM3 (nmol) produced/hour/mg of protein in the crude enzyme solution.
GM3 synthase activity(nmol/mg/hr)=BODIPY-GM3(AU)/(BODIPY-lactosylceramide(AU)+BODIPY-GM3(AU))×10 nmol×1/(protein weight (mg)×reaction time(hr))
AU means a numerical value determined with LAS-1000.

The subject of data set [2] is human GM3 synthase. Description: GM3 synthase inhibitor screening (2): Phospholipid FlashPlate, CMP-[14C] sialic acid. The conditions noted are these: without CMP = 1. In kind it is biochemical. Here is the method:
as §1
Coating of lactosylceramide, the substrate for GM3 synthase to Phospholipid FlashPlate (PerkinElmer, Inc.) was carried out by the method as described below. 200 μM lactosylceramide-reaction buffer solution consisting of 100 mM sodium cacodylate (pH6.5) and 10 mM MgCl2 was dispensed on the plate at 200 μl/well and followed by standing at room temperature for overnight. After washing the plate once with PBS, 30 μM lactosylceramide-reaction buffer solution was dispensed at 70 μl/well.
Ten microliter of the crude enzyme solution prepared by the procedure in EXAMPLE 4, 10 μl of CMP solution and 10 μl of 500 μM CMP-[^14C] sialic acid (Amersham; 5×10^4 cpm/well) were admixed and incubated at 37° C. for 3 (three) hours. Radioactivity was measured by Topcount (PerkinElmer, Inc.).
A well, in which buffer solution for cell suspension was added instead of the crude enzyme was used as a blank. A value obtained by subtract the cpm value of blank well from the cpm value of sample well was used as a value for enzyme activity.
Relative value was calculated based on the conditions without treatment of CMP as 1 (one).

The subject of the next data set is GM3 synthase. The data set can be described thus: Effect of shRNA expressing retrovirus on GM3 synthase activity in RAW264.7 strain. In kind it is cell-based. The conditions noted are these: crude enzyme from retrovirus-infected RAW264.7; uninfected RAW264.7 = 1. How it is done:
RAW264.7 strain purchased from ATCC (Raschke W C, et al., Cell, Vol. 15, pp. 261-267, 1978) was suspended in 10% FBS-DMEM culture medium to be 1×10^5 cells/ml, and was seeded on 12-well plate at 1 ml/well. After overnight incubation at 37° C. in the presence of 5% CO2, retrovirus, which expressed sequences for shRNA (short hairpin RNA), SHI (SEQ ID NO: 5) or SH3 (SEQ ID NO: 6), was infected to RAW264.7 strain. After overnight culture, the medium was replaced with 10% FBS-DMEM culture medium and the cells were cultured to confluent state. Using these cells, in accordance with the method in EXAMPLE 4, crude enzyme was prepared to assay GM3 synthase activity. Based on the value of the enzyme activity from RAW264.7 strain as 1 (one), the value from the virus-infected cells was calculated as relative value.

The subject of another data set is RAW264.7 strain. Description: Effect of GM3 synthase knock-down on cholesterol efflux from RAW264.7 strain. In kind it is cell-based. The conditions noted are these: [3H] cholesterol efflux to Apolipoprotein A1 20 μg/ml, 6 hours; uninfected RAW264.7 = 1. How it is done:
RAW264.7 strain infected with the retrovirus that expresses shRNA targeting GM3 synthase was suspended in 10% FBS-DMEM culture medium to be 1.5-2×10^6 cells/ml and was seeded on 12-well plate at 1 mL/well. After overnight culture at 37° C. in the presence of 5% CO2, the cells were washed with PBS. Then, after adding 1% FBS-DMEM culture medium, which contained [^3H] cholesterol-labeled βVLDL (final concentration: 150 μg of total cholesterol/ml), the cells were cultured for overnight. The cells were washed twice with 0.2% BSA-PBS and further washed with PBS. After replacing the medium with 0.1% BSA-DMEM culture medium, the cells were cultivated for one day. After replacing 20 μg/ml of Apolipoprotein A1 containing 0.1% BSA-DMEM culture medium, the cells were cultured for 6 hours. Cultured supernatant was collected, and radioactivity of the supernatant, from which cell debris was removed by centrifugation, was measured with the liquid scintillation counter. […] After incubation at 37° C. for overnight, radioactivity of the cell lysate was measured with the liquid scintillation counter. A ratio of the radioactivity of the culture supernatant to the summation of the radioactivity of the culture supernatant and the cell lysate was calculated. […] Based on the value from RAW264.7 strain as 1 (one), the value from the virus-infected cells was calculated as relative value.

The next data set concerns mouse GM3 synthase. Description: Effect of IFN-γ on expression of mouse GM3 synthase in mouse peritoneal macrophage cells (TaqMan PCR). In kind it is cell-based. The conditions noted are these: 24 hours, GAPDH internal standard, ΔΔCt, without IFN-γ = 1. How it is done: In accordance with the method by Hakamada et al. [Jikken-igaku (Experimental Medicine), Supplementary Volume, Vol. 14, No. 12, “Junnkan Kenkyu Protocol (Protocol for study on circulation)”, pp. 49-52, 1996], from C57BL/6j mouse after the intraperitoneal injection of thioglycolate, peritoneal macrophage was prepared. The cells were suspended in 10% FBS-DMEM culture medium to be 1.5-2×10^6 cells/mL, and were seeded on 12-well plate at 1 mL/well. After overnight culture at 37° C. in the presence of 5% CO2, the cells were washed with PBS. The 1% FBS-DMEM culture medium containing mouse recombinant IFN-γ at prescribed concentration was added to the cells, and cultivation was performed for 24 hours.
After washing the cells once with PBS, using RNeasy Mini Kit (QIAGEN) total RNA was prepared. Subsequently, using TaqMan Reverse Transcription Reagents (Applied Biosystems) cDNA was prepared. By TaqMan PCR method Using TaqMan Universal PCR Master Mix (Applied Biosystems), the expression level of GM3 synthase was quantified. As TaqMan probe and primers for mouse GM3 synthase, Assays-on-Demand (Mm00488232_ml) supplied from Applied Biosystems was used.
(§2) In quantification, an expression level of GAPDH was used as internal standard. By ΔΔCt method, relative value was calculated based on the conditions without treatment of IFN-γ as 1 (one).
A general note: Quantitative PCR measures a nucleic acid by following its amplification.

The subject of data set [3] is human GM3 synthase. The data set can be described thus: Effect of IFN-γ on expression of human GM3 synthase in THP-1 cells (TaqMan PCR). It counts as cell-based. The conditions noted are these: 24 hours, THP-1 macrophage-like cells, without IFN-γ = 1. How it is done:
THP-1 cells suspended in RPMI-1640 culture medium containing phorbol 12-myristeate 13-acetate (final concentration: […]), in which 10% FBS, 25 mM HEPES and Penicillin/Streptomycin were comprised, were seeded on 24-well plate at 1.0×10^6 cells/well and treated, for 3 (three) days to differentiate into macrophage-like cells. After washing the cells with PBS, RPMI-1640 culture medium containing human recombinant IFN-γ at a prescribed concentration was added to the cells. Subsequently, the cells were cultured for 24 hours.
As TaqMan probe and primers for human GM3 synthase, Assays-on-Demand (Hs00187405 ml) supplied from Applied Biosystems was used.
as §2

Take `Nc1ccn([C@@H]2O[C@H](COP(=O)(O)O)[C@@H](O)[C@H]2O)c(=O)n1` [CMP, cytidine mono phosphate]: the GM3 synthase activity in the data set with human GM3 synthase [1] (CMP 0.1 mM) turned out to be 46 nmol/mg/h; with human GM3 synthase [1] (CMP 0.3 mM) it was 27 nmol/mg/h; in the data set on human GM3 synthase [1] (CMP 1 mM) it was 12 nmol/mg/h; in the data set with human GM3 synthase [1] (CMP 3 mM), 5 nmol/mg/h; with human GM3 synthase [1] (CMP 10 mM), 7 nmol/mg/h. Further, the “GM3 synthase activity (relative value)” value in the data set on human GM3 synthase [2] (CMP 0.04 mM) was 1.01; with human GM3 synthase [2] (CMP 0.12 mM), 0.73; in the data set on human GM3 synthase [2] (CMP 0.4 mM) it was 0.58; with human GM3 synthase [2] (CMP 1.2 mM) it was 0.32; in the data set on human GM3 synthase [2] (CMP 4 mM), 0.28.

Regarding “SH1: retrovirus expressing shRNA (short hairpin RNA) sequence SEQ ID NO: 5 targeting GM3 synthase (GAAGACCCAGCTTGTTAATGTGTGCTGTCCATTAACAAGCTGGGTCTTCTTTTT)”, in the data set on GM3 synthase, the “GM3 synthase activity (relative value)” value is 0.3. Moreover, in the data set with RAW264.7 strain, the “cholesterol transporting activity (relative value)” value was 1.3.

For the molecule “SH3: retrovirus expressing shRNA (short hairpin RNA) sequence SEQ ID NO: 6 targeting GM3 synthase (GCCAATGATTTGTTCGTTAGTGTGCTGTCCTAACGAACAAATCATTGGCTTTTT)”, in the data set with GM3 synthase, the “GM3 synthase activity (relative value)” value turned out to be 0.5. The “cholesterol transporting activity (relative value)” value in the data set with RAW264.7 strain was found to be 1.1.

In the case of “mIFN-γ: mouse recombinant IFN-γ, known as the atherogenic cytokine”, the “Expression (mouse GM3 synthase mRNA, relative value)” value in the data set on mouse GM3 synthase (mIFN-γ 1 U/mL) worked out at 4; in the data set with mouse GM3 synthase (mIFN-γ 10 U/mL), 25.

B1: hIFN-γ: human recombinant IFN-γ (protein, UniProt P01579 24-161, looked up)
Interferon gamma: QDPYVKEAENLKKYFNAGHSDVADNGTLFLGILKNWKEESDRKIMQSQIVSFYFKLFKNFKDDQSIQKSVETIKEDMNVKFFNSNKKKRDDFEKLTNYSVTDLNVQRKAIHELIQVMAELSPAAKTGKRKRSQMLFRG
As to B1, the figures for the “Expression level (human GM3 synthase mRNA, relative value)” value with human GM3 synthase [3] (hIFN-γ 10 ng/mL) and with human GM3 synthase [3] (hIFN-γ 30 ng/mL) were 2.6 and 2.4, respectively.
